Data published in ChEMBL document CHEMBL4376903, “Cereblon Based Immunomodulatory Therapeutics” (ACS Med Chem Lett, 2020).
pIC50: −log10 of the molar value.

Tests used:
Format in all cases: cell-based
[1] = biological target: T1, Protein cereblon/Estrogen receptor (Homo sapiens, UniProt P03372+Q96SW2); assay: Protac activity at cereblon/ERalpha in human MCF7 cells assessed as induction of ERalpha protein degradation by Western blot analysis relative to control
Target sequence in this assay (Q96SW2 whole entry, looked up, one chain of several): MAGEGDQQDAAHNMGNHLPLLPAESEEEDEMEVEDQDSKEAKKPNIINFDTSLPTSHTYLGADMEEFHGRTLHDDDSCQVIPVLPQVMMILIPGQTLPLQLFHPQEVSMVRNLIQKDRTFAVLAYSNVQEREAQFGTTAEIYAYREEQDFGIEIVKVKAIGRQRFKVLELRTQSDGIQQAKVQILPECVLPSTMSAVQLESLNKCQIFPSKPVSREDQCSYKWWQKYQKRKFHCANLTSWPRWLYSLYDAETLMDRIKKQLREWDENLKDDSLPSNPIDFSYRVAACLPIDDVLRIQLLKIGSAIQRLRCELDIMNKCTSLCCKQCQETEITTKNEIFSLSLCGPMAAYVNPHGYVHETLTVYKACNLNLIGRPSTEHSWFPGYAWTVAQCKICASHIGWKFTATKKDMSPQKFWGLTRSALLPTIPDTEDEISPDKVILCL

[2] = biological target: T1, Protein cereblon/Estrogen receptor; assay: Protac activity at cereblon/ERalpha in human MCF7 cells assessed as induction of ERalpha protein degradation by Western blot analysis
Target sequence in this assay (Q96SW2 whole entry, one chain of several): as the sequence (Q96SW2 whole entry, looked up, one chain of several) above

[3] = biological target: T2, Estrogen receptor (Homo sapiens, UniProt P03372); assay: Inhibition of ERalpha in human T47D cells by ERE-driven luciferase reporter gene assay based target engagement assay
T2 sequence (P03372 whole entry): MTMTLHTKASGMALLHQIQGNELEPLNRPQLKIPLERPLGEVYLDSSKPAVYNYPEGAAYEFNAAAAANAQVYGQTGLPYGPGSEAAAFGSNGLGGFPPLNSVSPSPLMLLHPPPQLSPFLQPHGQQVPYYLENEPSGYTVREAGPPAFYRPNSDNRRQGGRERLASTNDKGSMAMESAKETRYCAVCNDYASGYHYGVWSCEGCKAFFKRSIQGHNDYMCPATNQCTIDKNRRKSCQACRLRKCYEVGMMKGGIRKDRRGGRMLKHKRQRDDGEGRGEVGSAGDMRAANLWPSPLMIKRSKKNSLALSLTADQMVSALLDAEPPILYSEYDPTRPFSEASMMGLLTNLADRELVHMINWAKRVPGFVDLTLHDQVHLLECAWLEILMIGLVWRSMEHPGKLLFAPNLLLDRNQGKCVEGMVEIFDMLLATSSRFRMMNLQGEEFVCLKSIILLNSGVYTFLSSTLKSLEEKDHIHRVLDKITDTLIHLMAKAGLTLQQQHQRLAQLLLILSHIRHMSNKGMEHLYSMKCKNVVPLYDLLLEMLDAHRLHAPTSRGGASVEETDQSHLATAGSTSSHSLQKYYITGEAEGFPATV

SMILES	Emax [1] [%]	DC50 [2] [nM]	pIC50 [3]
COc1cc(N2CCN(CCC3(O)CC(Oc4ccc([C@@H]5c6ccc(O)cc6CC[C@@H]5c5ccccc5)cc4)C3)CC2)cc2c1C(=O)N(C1CCC(=O)NC1=O)C2 (some centres undefined)	> 75	< 1	9.52
COc1cc(N2CCN(CCC3CCN(c4ccc([C@@H]5c6ccc(O)cc6CC[C@@H]5c5ccccc5)cc4F)CC3)CC2)cc2c1C(=O)N(C1CCC(=O)NC1=O)C2 (some centres undefined)	> 75	1 to 10	9.15
COc1cc(N2CCN(CCCCCOc3ccc([C@@H]4c5ccc(O)cc5CC[C@@H]4c4ccccc4)cc3)CC2)cc2c1C(=O)N(C1CCC(=O)NC1=O)C2 (some centres undefined)	> 75	1 to 10	9.10
O=C1CCC(N2Cc3cc(N4CCN(CCC5(O)CC(Oc6ccc([C@@H]7c8ccc(O)cc8CC[C@@H]7c7ccccc7)cc6)C5)CC4)cc(OC(F)F)c3C2=O)C(=O)N1 (some centres undefined)	50 to 75	< 1	9.30
COc1cc(N2CCN(C3CC4CC(Oc5ccc([C@@H]6c7ccc(O)cc7CC[C@@H]6c6ccc(F)cc6)cc5)CC4C3)CC2)cc2c1C(=O)N(C1CCC(=O)NC1=O)C2 (some centres undefined)	50 to 75	< 1	9.09
COc1cc(N2CCN(CCCCCOc3ccc([C@@H]4c5ccc(O)cc5CC[C@@H]4c4ccccc4)cc3)CC2)cc2c1C(=O)N([C@H]1CCC(=O)NC1=O)C2	> 75	< 1	9.31
COc1cc(N2CCN(CCCCCOc3ccc([C@@H]4c5ccc(O)cc5CC[C@@H]4c4ccccc4)cc3)CC2)cc2c1C(=O)N([C@@H]1CCC(=O)NC1=O)C2	> 75	< 1	9.43
COc1cc(N2CCN(CC(=O)C3CC(Oc4ccc([C@@H]5c6ccc(O)cc6CC[C@@H]5c5ccccc5)cc4)C3)CC2)cc2c1C(=O)N(C1CCC(=O)NC1=O)C2 (some centres undefined)	> 75	< 1	9.15
